Activity calls are given as the source filed them. The rule behind the calls is not given here.
Key:
[1] = biological target: T1, Cyclin-dependent kinase 2 (Homo sapiens, UniProt P24941); test: Inhibition of CDK2 at 50 uM
[2] = biological target: T1, Cyclin-dependent kinase 2; test: Inhibition of CDK2
[3] = biological target: Cyclin-dependent kinase 1 (Homo sapiens, UniProt P06493); test: Inhibition of CDC2
[4] = Inhibition of MAPK
[5] = biological target: Cyclin-dependent kinase 4 (Homo sapiens, UniProt P11802); test: Inhibition of CDK4
Aurora kinase A = biological target: T2, Aurora kinase A (Homo sapiens, UniProt O14965); test: Inhibition of AUR2
T2 sequence (O14965 whole entry): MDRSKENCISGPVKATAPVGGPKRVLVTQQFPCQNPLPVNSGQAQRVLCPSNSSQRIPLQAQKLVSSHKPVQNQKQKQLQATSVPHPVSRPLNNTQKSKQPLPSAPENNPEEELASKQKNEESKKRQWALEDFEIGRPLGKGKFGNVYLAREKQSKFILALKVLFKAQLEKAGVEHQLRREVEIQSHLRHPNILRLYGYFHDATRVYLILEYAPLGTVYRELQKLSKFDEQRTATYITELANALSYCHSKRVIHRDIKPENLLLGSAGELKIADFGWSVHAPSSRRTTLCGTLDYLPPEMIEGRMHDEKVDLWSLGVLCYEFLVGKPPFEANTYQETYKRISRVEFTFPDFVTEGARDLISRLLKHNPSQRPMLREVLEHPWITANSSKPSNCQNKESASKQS

MCF7 [6] = test: Antiproliferative activity against human MCF7 cells by clonogenicity assay; format: functional, cell-based
MCF7 [7] = test: Antiproliferative activity against human MCF7 cells by soft agar growth assay; format: functional, cell-based

Chain of Cyclin-dependent kinase 1 (P06493 whole entry): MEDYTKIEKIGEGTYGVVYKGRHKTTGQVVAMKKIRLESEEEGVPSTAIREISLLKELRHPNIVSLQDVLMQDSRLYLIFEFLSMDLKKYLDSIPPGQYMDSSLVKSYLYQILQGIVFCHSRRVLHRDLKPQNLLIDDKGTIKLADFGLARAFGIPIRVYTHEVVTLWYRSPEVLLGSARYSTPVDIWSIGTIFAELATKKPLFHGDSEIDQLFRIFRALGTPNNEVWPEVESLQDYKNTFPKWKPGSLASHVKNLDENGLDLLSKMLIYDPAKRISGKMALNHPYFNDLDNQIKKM
Chain of Cyclin-dependent kinase 4 (P11802 whole entry): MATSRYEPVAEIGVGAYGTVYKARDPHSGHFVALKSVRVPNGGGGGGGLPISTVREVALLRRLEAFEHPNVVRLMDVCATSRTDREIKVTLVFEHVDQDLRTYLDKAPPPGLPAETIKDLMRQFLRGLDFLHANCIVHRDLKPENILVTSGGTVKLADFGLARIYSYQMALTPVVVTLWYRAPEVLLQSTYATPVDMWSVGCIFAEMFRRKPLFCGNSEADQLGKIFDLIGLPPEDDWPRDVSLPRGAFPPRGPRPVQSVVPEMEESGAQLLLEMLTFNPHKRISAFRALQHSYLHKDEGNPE

| SMILES | Activity [1] | IC50 [2] [µM] | further results |
| --- | --- | --- | --- |
| COc1cc(O)cc2c1cc([N+](=O)[O-])c1c(C(=O)O)cc3c(c12)OCO3 [ARISTOLOCHIC D] | inactive | 25 |  |
| COc1cc2c3c(c1O)-c1c(ccc(OC)c1OC)C[C@@H]3N(C)CC2 [CORYDINE] |  | > 50 |  |
| COc1cc(OC)c2cc([N+](=O)[O-])c3c(C(=O)O)cc4c(c3c2c1)OCO4 [ARISTOLOCHIC ACID IV] | inactive | > 20 |  |
| O=C1Nc2c(Cl)c3ccccc3c3c(O)c(O)cc1c23 | inactive | > 25 |  |
| COc1c(O)cc2c3c(cc4ccc(O)cc4c13)NC2=O [ARISTOLACTAM AIIIA] |  |  | IC50 [3]: 0.2 µM; IC50 [4]: > 50 µM; IC50 [5]: 2 µM; IC50 (Aurora kinase A): 5 µM; IC50 (MCF7 [6]): 3 µM; IC50 (MCF7 [7]): > 0.01 µM |
| CN1CCc2cc3c(c4c2[C@H]1Cc1ccccc1-4)OCO3 [ROEMERINE HBR] |  | > 50 |  |
| COC1=C[C@]23CCN(C)[C@H](Cc4ccc(OC)c(O)c42)C3=CC1=O [SALUTARIDINE] |  | > 50 |  |
| O=C1Nc2cc3ccccc3c3c(O)c(O)cc1c23 | inactive | > 35 |  |
| COc1cccc2c1c(Cl)c([N+](=O)[O-])c1c(C(=O)O)cc(O)c(O)c12 | inactive | 16.5 |  |
| O=C(O)c1cc(O)c(O)c2c1c([N+](=O)[O-])cc1c(O)cccc12 | inactive | 5.7 |  |
| COc1c(O)ccc2c1cc1c3c(cc4c(c32)OCO4)C(=O)N1 |  | 2.9 |  |
| O=C1Nc2cc3c(O)cccc3c3c4c(cc1c23)OCO4 | inactive | 0.035 | IC50 [3]: 0.214 µM; IC50 [4]: 35.3 µM; IC50 [5]: 1.42 µM; IC50 (Aurora kinase A): 2.14 µM |
| COc1c(O)ccc2c1cc([N+](=O)[O-])c1c(C(=O)O)cc3c(c12)OCO3 [7-HYDROXY ARISTOLOCHIC A] | inactive | 25 |  |
| O=C1Nc2cc3c(O)cccc3c3c(O)c(O)cc1c23 | inactive | > 35 |  |
| CN1C(=O)c2cc3c(c4c2c1cc1c(O)cccc14)OCO3 | inactive | > 35 |  |
| COc1cccc2c1cc([N+](=O)[O-])c1c(C(=O)O)cc3c(c12)OCO3 [ARISTOLOCHIC ACID] | inactive | > 20 |  |
| COc1ccc2nc3[nH]nc(C)c3c(OC)c2c1 |  | 0.02 | IC50 [3]: 0.2 µM; IC50 [4]: > 50 µM; IC50 [5]: 2 µM; IC50 (Aurora kinase A): 5 µM; IC50 (MCF7 [6]): 3.5 µM; IC50 (MCF7 [7]): 2 µM |
| O=C1Nc2cc3ccccc3c3c4c(cc1c23)OCO4 [ARISTOLACTAM II] | inactive | 15 |  |
| COc1cccc2c1c(Cl)c1c3c(cc(O)c(O)c32)C(=O)N1 | inactive | 10 |  |
| O=C(O)c1cc(O)c(O)c2c1c([N+](=O)[O-])c(Cl)c1ccccc12 | inactive | 18 |  |
| COc1ccc2c(c1OC)CC1c3c(cc4c(c3-2)OCO4)CCN1C (stereo unspecified) [CREBANINE] |  | > 50 |  |
| O=C1Nc2cc3c(O)cc(O)cc3c3c4c(cc1c23)OCO4 | inactive | > 50 |  |

| SMILES | Activity [1] | IC50 [2] [µM] | further results |
| --- | --- | --- | --- |
| COc1cccc2c1cc1c3c(cc4c(c32)OCO4)C(=O)N1C | inactive | > 35 |  |
| O=C(O)c1cc2c(c3c1c([N+](=O)[O-])cc1ccccc13)OCO2 [ARISTOLOCHIC ACID II] | inactive | > 20 |  |
| COc1ccc2cc([N+](=O)[O-])c3c(C(=O)O)cc4c(c3c2c1)OCO4 | inactive | > 20 |  |
| COc1cc(OC)c2cc3c4c(cc5c(c4c2c1)OCO5)C(=O)N3 | inactive | > 15 |  |
| COc1cc2c(cc1OC)-c1c3c(cc4c1[C@H](C2)N(C)CC4)OCO3 [DICENTRINE] |  | > 50 |  |
| COc1ccc2c(c1O)-c1c(OC)c(OC)cc3c1[C@H](C2)N(C)CC3 [ISOCORYDINE] |  | > 50 |  |
| COc1ccc2c(c1O)-c1c(O)c(OC)cc3c1[C@H](C2)N(C)CC3 [CORYTUBERINE] |  | > 50 |  |
| COc1cccc2c1cc([N+](=O)[O-])c1c(C(=O)O)cc(O)c(O)c12 | inactive | > 30 |  |
| COc1cc(O)cc2c1cc1c3c(cc4c(c32)OCO4)C(=O)N1 | inactive | > 35 |  |
| COC1=C[C@@H]2[C@@H]3Cc4ccc(OC)c(O)c4[C@]2(CCN3C)CC1=O [SINOMENINE] |  | > 50 |  |
| O=C(O)c1cc2c(c3c1c([N+](=O)[O-])cc1c(O)cccc13)OCO2 [ARISTOLOCHIC ACID III] | inactive | 15 |  |
| O=C1Nc2cc3c(O)c(O)ccc3c3c4c(cc1c23)OCO4 | inactive | > 30 |  |
| COc1ccc2c(c1OC)CN1CCc3cc4c(cc3C1C2)OCO4 (stereo unspecified) [TETRAHYDROBERBERINE] |  | > 50 |  |
| COc1cccc2c1cc1c3c(cc(O)c(O)c32)C(=O)N1 | inactive | > 35 |  |
| COc1cccc2c1C[C@@H]1c3c(cc4c(c3-2)OCO4)CCN1C [STEPHANINE] |  | > 50 |  |
| COc1cccc2c1cc1c3c(cc4c(c32)OCO4)C(=O)N1 [ARISTOLACTAM I] |  | 1.2 |  |
| O=C1Nc2cc3ccc(O)cc3c3c4c(cc1c23)OCO4 |  | 2.15 |  |
| O=C(O)c1cc(O)c(O)c2c1c([N+](=O)[O-])cc1ccccc12 | inactive | 13.4 |  |
| COc1cccc2c1c(OC)c([N+](=O)[O-])c1c(C(=O)O)cc3c(c12)OCO3 [7-METHOXY ARISTOLOCHIC ACID A] | inactive | > 20 |  |
| O=C(O)c1cc2c(c3c1c([N+](=O)[O-])cc1ccc(O)cc13)OCO2 [ARISTOLOCHIC ACID C] | inactive | 30 |  |
| COc1ccc2c(cc3c4c(cc5c(c42)OCO5)C(=O)N3)c1OC | inactive | > 15 |  |

Reference: ChEMBL document CHEMBL1156890, “Semi-synthetic aristolactams--inhibitors of CDK2 enzyme” (Bioorg Med Chem Lett, 2010)
